From ChEMBL document CHEMBL1136518, “Potent, selective inhibitors of protein tyrosine phosphatase 1B” (Bioorg Med Chem Lett, 2003)

Columns and labels:
[1] = biological target: T1, Tyrosine-protein phosphatase non-receptor type 2 (Homo sapiens, UniProt P17706); experiment: Inhibitory activity tested against T-cell Protein tyrosine phosphatase 2 (TCPTP)
T1 sequence (P17706 whole entry): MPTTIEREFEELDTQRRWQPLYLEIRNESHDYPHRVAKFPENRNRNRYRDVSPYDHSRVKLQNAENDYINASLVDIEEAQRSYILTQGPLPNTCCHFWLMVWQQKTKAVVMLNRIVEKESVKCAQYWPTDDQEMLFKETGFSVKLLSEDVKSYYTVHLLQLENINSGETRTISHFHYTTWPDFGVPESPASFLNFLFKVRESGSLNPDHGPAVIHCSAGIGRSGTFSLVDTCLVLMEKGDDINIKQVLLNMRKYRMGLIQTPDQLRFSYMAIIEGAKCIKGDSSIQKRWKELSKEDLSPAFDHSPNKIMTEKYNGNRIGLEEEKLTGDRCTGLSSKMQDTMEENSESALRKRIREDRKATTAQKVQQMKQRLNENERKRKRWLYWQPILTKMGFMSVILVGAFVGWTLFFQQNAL

[2] = biological target: T2, Tyrosine-protein phosphatase non-receptor type 1 (Homo sapiens, UniProt P18031); experiment: Inhibitory activity tested against Protein-tyrosine phosphatase 1B (PTP1B)
T2 sequence (P18031 whole entry): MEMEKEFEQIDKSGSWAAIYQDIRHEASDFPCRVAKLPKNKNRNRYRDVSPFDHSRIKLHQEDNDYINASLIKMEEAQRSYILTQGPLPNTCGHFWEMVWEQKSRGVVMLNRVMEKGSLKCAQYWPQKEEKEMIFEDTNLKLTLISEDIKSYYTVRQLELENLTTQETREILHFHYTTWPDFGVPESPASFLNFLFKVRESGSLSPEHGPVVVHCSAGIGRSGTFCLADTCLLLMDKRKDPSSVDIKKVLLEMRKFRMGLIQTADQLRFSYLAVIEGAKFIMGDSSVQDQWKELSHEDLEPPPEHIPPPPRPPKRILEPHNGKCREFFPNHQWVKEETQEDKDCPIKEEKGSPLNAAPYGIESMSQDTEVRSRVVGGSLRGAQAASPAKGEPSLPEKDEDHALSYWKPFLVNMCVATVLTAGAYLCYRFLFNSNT

[3] = biological target: T3, Receptor-type tyrosine-protein phosphatase C (Homo sapiens, UniProt P08575); experiment: Inhibition of common leukocyte antigen CD45 phosphatase
T3 sequence (P08575 whole entry): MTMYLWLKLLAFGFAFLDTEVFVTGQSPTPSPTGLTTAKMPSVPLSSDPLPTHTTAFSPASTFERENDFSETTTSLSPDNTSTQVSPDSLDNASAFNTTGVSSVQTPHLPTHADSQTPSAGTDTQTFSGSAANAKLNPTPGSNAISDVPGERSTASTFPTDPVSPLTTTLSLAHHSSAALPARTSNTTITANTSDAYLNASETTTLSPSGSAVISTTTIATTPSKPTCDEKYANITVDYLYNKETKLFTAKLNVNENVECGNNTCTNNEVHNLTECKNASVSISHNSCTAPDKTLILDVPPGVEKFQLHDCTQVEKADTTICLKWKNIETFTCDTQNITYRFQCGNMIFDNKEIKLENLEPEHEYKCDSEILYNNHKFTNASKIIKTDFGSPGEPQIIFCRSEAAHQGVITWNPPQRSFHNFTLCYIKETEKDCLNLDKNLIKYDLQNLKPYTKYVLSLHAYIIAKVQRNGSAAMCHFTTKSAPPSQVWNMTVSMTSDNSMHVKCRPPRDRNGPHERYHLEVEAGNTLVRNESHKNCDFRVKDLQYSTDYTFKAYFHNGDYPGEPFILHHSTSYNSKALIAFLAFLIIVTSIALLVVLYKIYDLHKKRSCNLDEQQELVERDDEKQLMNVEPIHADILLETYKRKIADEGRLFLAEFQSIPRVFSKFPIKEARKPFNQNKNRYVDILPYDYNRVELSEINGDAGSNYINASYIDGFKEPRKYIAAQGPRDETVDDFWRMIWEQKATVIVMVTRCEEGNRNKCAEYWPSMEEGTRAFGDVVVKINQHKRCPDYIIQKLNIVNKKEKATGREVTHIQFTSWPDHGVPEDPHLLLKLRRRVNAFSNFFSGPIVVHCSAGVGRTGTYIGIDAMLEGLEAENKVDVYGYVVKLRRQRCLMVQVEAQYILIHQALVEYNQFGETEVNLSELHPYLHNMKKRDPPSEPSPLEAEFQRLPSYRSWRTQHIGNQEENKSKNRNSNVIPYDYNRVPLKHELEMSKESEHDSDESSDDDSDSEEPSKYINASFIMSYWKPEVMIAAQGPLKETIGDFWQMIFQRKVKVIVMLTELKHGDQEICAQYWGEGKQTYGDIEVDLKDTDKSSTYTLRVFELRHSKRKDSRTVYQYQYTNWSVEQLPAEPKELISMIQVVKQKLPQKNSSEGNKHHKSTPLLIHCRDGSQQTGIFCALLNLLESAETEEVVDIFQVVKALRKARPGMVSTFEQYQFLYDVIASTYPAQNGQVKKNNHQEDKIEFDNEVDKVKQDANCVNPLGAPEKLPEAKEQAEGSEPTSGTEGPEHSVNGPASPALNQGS

[4] = biological target: T4, M-phase inducer phosphatase 3 (Homo sapiens, UniProt P30307); experiment: Inhibition of Cell division cycle 25 (Cdc25) phosphatase
T4 sequence (P30307 whole entry): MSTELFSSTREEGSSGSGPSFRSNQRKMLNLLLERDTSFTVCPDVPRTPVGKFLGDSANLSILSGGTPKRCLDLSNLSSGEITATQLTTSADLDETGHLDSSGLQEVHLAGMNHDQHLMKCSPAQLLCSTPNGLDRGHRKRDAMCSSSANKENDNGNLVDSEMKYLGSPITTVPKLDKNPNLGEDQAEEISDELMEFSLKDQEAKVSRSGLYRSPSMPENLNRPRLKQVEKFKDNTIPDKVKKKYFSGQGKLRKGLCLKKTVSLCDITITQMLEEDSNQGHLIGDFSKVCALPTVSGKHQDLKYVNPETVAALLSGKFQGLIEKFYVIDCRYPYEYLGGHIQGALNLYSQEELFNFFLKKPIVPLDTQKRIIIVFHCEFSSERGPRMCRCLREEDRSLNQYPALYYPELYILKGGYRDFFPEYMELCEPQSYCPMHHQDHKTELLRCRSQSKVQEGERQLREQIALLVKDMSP

[5] = Inhibition of LAR (leukocyte common antigen-related) phosphatase
[6] = Inhibition of SHP-2 phosphatase

SMILES	Ki [1] [nM]	Ki [2] [nM]	other results
CCc1cc(CC(NC(C)=O)C(=O)NCCCCC(=O)N[C@H](C(=O)O)C2CCCCC2)ccc1N(C(=O)C(=O)O)c1ccccc1C(=O)O (stereo not given in full)	290	250	
CCc1cc(CC(NC(C)=O)C(=O)NCCCCC(=O)NC(Cc2ccccc2)C(N)=O)ccc1N(C(=O)C(=O)O)c1ccccc1C(=O)O (stereo not given)	700	1300	
CCc1cc(CC(NC(C)=O)C(=O)NCCCCC(=O)NCCc2ccccc2)ccc1N(C(=O)C(=O)O)c1ccccc1C(=O)O (stereo not given)	1400	3400	
CCc1cc(CC(NC(C)=O)C(=O)NCCCCC(=O)N[C@@H](CCSC)C(=O)O)ccc1N(C(=O)C(=O)O)c1ccccc1C(=O)O (stereo not given in full)			Ki [3]: > 300000 nM; Ki [4]: > 300000 nM; Ki [5]: 8750 nM; Ki [6]: 73200 nM
CCc1cc(CC(NC(C)=O)C(=O)NCc2ccc([N+](=O)[O-])cc2)ccc1N(C(=O)C(=O)O)c1ccccc1C(=O)O (stereo not given)	450	540	
CCc1cc(CC(NC(C)=O)C(=O)NCc2ccc(OC)cc2)ccc1N(C(=O)C(=O)O)c1ccccc1C(=O)O (stereo not given)	3600	4700	
CCc1cc(CC(NC(C)=O)C(=O)NCCCCC(=O)N[C@@H](Cc2ccccc2)C(=O)O)ccc1N(C(=O)C(=O)O)c1ccccc1C(=O)O (stereo not given in full)	160	140	
CCc1cc(CC(NC(C)=O)C(=O)NCc2ccc(Cl)cc2)ccc1N(C(=O)C(=O)O)c1ccccc1C(=O)O (stereo not given)	1500	1200	
CCc1cc(CC(NC(C)=O)C(=O)NCCCCC(=O)N[C@@H](CCSC)C(=O)OC)ccc1N(C(=O)C(=O)O)c1ccccc1C(=O)O (stereo not given in full)	670	540	

Now from value to compound, other results behind:

Ki [1] [nM]	Ki [2] [nM]	SMILES	other results
240	120	CCCC[C@H](NC(=O)CCCCNC(=O)C(Cc1ccc(N(C(=O)C(=O)O)c2ccccc2C(=O)O)c(CC)c1)NC(C)=O)C(=O)O (stereo not given in full)	
820	710	CCc1cc(CC(NC(C)=O)C(=O)NCCCCC(=O)N[C@@H](CCCCN)C(=O)O)ccc1N(C(=O)C(=O)O)c1ccccc1C(=O)O (stereo not given in full)	
370	470	CCc1cc(CC(NC(C)=O)C(=O)NCCCCC(=O)N[C@@H](CCS(C)(=O)=O)C(=O)O)ccc1N(C(=O)C(=O)O)c1ccccc1C(=O)O (stereo not given in full)	
400	430	CCc1cc(CC(NC(C)=O)C(=O)NCCCCC(=O)N[C@H](C(=O)O)C(C)CC)ccc1N(C(=O)C(=O)O)c1ccccc1C(=O)O (stereo not given in full)	
2200	2500	CCc1cc(CC(NC(C)=O)C(=O)NCCCCC(=O)O)ccc1N(C(=O)C(=O)O)c1ccccc1C(=O)O (stereo not given)	
270	330	CCc1cc(CC(NC(C)=O)C(=O)NCCCCC(=O)N[C@@H](CCC(N)=O)C(=O)O)ccc1N(C(=O)C(=O)O)c1ccccc1C(=O)O (stereo not given in full)	
510	130	CCSCC[C@H](NC(=O)CCCCNC(=O)C(Cc1ccc(N(C(=O)C(=O)O)c2ccccc2C(=O)O)c(CC)c1)NC(C)=O)C(=O)O (stereo not given in full)	
	1700	CCc1cc(CC(NC(C)=O)C(=O)NCCCCC(=O)N[C@H](CCSC)C(=O)O)ccc1N(C(=O)C(=O)O)c1ccccc1C(=O)O (stereo not given in full)	
